SMILES strings stand for the structures. Some results are limits rather than exact numbers.

This passage reports melting point results from a melting point compilation (Tetko et al.; mined from patent text by program, amines drawn as free bases though some values may be those of a salt).

Turning to `CCOCn1c(-c2ccc(Cl)cc2)c(C#N)c(Sc2ccc(Cl)c(Cl)c2)c1C(F)(F)F`, the melting point fell in the range of 75 to 77 °C. Then `Nc1nc(OCC2CCCCC2)c2c(n1)=NC(=O)N=2`, with 297 °C; and `O=C1c2ccccc2C(=O)N1CCCCC1N=NC(=S)N1` (configuration not stated), with 223 to 225 °C. To `CC12CC(=O)C3C(CCC4CC(O)CCC43C)C1CCC2C(=O)COCCN1CCOCC1` (configuration not stated) belongs 112 to 113 °C; to `COc1ccc(C=O)c(OCC#N)c1`, 96 to 101 °C; to `O=C(CN1CCOCC1)N[C@@H](Cc1cccc2ccccc12)C(=O)O`, 100 to 103 °C. For the compound `C[C@H]1[C@H](N)CN1c1cc2c(cc1F)c(=O)c(C(=O)O)cn2C(C)(C)C` (relative stereo), the melting point lay in the range of 225 to 227 °C. Then `CC(C)C(NC(=O)OCc1ccccc1)C(=O)NC(Cc1ccccc1)C(O)C(Cc1ccccc1)NC(=O)C(NC(=O)N1CCN(C)CC1)C(C)C` (configuration not stated), with 175 to 176 °C; and `Cn1c(=O)c(-c2c(Cl)cccc2Cl)cc2cnc(S(C)(=O)=O)nc21`, with above 290 °C; and `O=S1(=O)O[C@H](COCc2ccccc2)CC[C@@H](COCc2ccccc2)O1`, with 57 to 59 °C. On to `NS(=O)(=O)c1ccc(C2(c3nc4c(F)cccc4s3)C=C(C(F)F)NN2)cc1` (configuration not stated), for which the melting point lay within 243 to 245 °C. `CS(=O)(=O)OCCNc1cc(Cl)ccc1[N+](=O)[O-]` registered a melting point of 101 to 102 °C. To `C#CCOc1ccc(CCNC(=O)C(=NOC)c2ccc(Cl)c(Cl)c2)cc1OC` belongs 107 to 108 °C; to `Cc1c(F)cc(C(=O)NCC2CC2)cc1-c1ccc(C(=O)NCC(C)(C)C)cc1C(=O)Nc1nccs1`, 179 to 183 °C. To `C=CC(=O)Nc1ccc(C(=O)C[N+](=O)[O-])c(Cl)c1` belongs 140 to 144 °C; to `CC(C(=O)O)(c1ccccc1)N1CCC(c2noc3cc(F)ccc23)CC1` (configuration not stated), 194 to 200 °C. `COc1cc2c(c(Cl)c1Cl)C(=O)C(C)(CC1CCCC1)C2` (configuration not stated) returned a melting point of 75 to 77 °C. To `CNC(=O)N(C)C(=O)N1CCN(c2ccccc2)CC1` belongs 79 to 80 °C. Then `COc1cc(OC)c2c(=O)[nH]c(-c3ccc(OCCN4CCCC4)cc3)nc2c1`, with 226 to 227 °C; and `O=C(Nc1cc([N+](=O)[O-])cc([N+](=O)[O-])c1)c1cc(Br)ccc1O`, with 258 to 260 °C; and `C[C@H](NC(=O)c1cccnc1Oc1ccc(F)cc1)c1cccs1`, with 59 to 61 °C.

Turning to `CC(C)Oc1ccc(CCCOc2cc(CCC(=O)O)n(-c3ccccc3)n2)c(OCc2ccc(C(F)(F)F)cc2)c1`, the melting point was in the range of 118 to 119 °C. `O=C(ON=C1C(=O)c2ccccc2-c2ccccc21)c1ccccc1`: the melting point fell in the range of 148 to 149 °C. `CCCCN(c1nc(NCCCCCCN)nc(N(CCCC)C2CC(C)(C)N(C)C(C)(C)C2)n1)C1CC(C)(C)N(C)C(C)(C)C1` registered a melting point of 125 °C. The compound `COc1cc(Br)c(O)c(C=O)c1` gave a melting point of 107 to 110 °C. In the case of `Cc1oc(-c2ccccc2)nc1CCOc1ccc(CO)cc1`, the melting point was in the range of 110 to 113 °C. To `CCC(C)(C)N=C(NC#N)Nc1cc(Br)cc(Br)c1` belongs 168 to 170 °C; to `NS(=O)(=O)c1cccc(C2(O)CCCCC2)c1`, 172 to 176 °C. To `O=C(NC1CCCCC1)NS(=O)(=O)c1ccc(CCn2cnc3ccccc3c2=O)cc1` belongs 228 to 230 °C.

The compound `C=C(OCC)c1cc(N)c(OC)c(C(=O)OC)n1` returned a melting point of 72 to 73 °C. To `CCOC(=O)c1cc2cc[nH]c2cc1N` belongs above 250 °C; to `CC(=O)OCC(=O)C12OCOC1CC1C3CCC4=CC(=O)CCC4(C)C3(Cl)C(O)CC12C` (configuration not stated), 231 °C; to `COc1cc(Cc2cnc(NCCSCc3ncccc3Br)[nH]c2=O)ccn1`, 70 to 72 °C. To `CS(=O)(=O)NC(=O)N1CC1C#N` (configuration not stated) belongs 110 to 112 °C.

`CCOC(=O)c1cc2cccc(OCC(O)CCl)c2o1` (configuration not stated): the melting point is 95 to 97 °C.

As for `CC1CN(c2c(F)cc3c(=O)c(C(=O)O)cn(C)c3c2C(F)(F)F)CCN1c1ncccn1` (configuration not stated), the melting point was 283 to 284 °C. Then `C[C@H](NC(=O)CCC(=O)NO)C(=O)N1CCC[C@H]1C(=O)O`, with 195 to 196 °C; and `CS(=O)(=O)N1CCN([C@@H](CNS(=O)(=O)c2ccc(OCc3noc4ccccc34)cc2)C(=O)NO)CC1`, with 107 °C. To `CCNc1ccccc1Nc1c(C(=O)O)cnc2c1cnn2CC` belongs 224 to 226 °C; to `COc1nc2cc(Cl)c(Cl)c(CS(C)(=O)=O)c2nc1OC`, 161 to 163 °C. Then `CN1CCCc2ccc(C(=O)CCC(=O)N3CCC(c4ccc(Cl)cc4)CC3)cc2C1`, with 133 to 134 °C. As to `Cc1ccc(C(=O)Nc2nc(=O)c3ccccc3n2C)cc1`, the melting point fell in the range of 235 to 238 °C. In turn, `OCc1cccc2cc(-c3ccccc3)oc12` returned a melting point of 118 °C. To `O=C(O)CCC(=O)CC(=O)c1cccnc1` belongs 156 to 158 °C; to `Cc1cccc(C(=O)NC(C)C)c1N(C(=O)c1cc(C(F)(F)F)[nH]n1)c1ncccc1Cl`, 194 to 195 °C; to `O=c1[nH]c(C(F)(F)F)nc2ccc(I)cc12`, above 255 °C.

Compound `N=C(NCl)c1ccsc1` registered a melting point of 96 to 98 °C.

In turn, `C=C(c1cc(F)ccc1OCCCC)n1ccnc1` yielded a melting point of 107 to 109 °C. To `CC1CCc2c(Cl)c(Cl)cc3c(=O)c(C(=O)O)cn1c23` (configuration not stated) belongs 269 to 271 °C; to `COC(=O)[C@H](CCC(=O)O)N1C(=O)c2ccccc2C1=O`, 137 to 138 °C. `O=C1CCC(c2ccc(-n3ccc(=O)cc3)cc2)=NN1` registered a melting point of 270 to 272 °C. To `C=CC1OC(=O)c2c(Oc3nc(OC)cc(OC)n3)cccc21` (configuration not stated) belongs 94 to 97 °C; to `FC(F)(F)c1ccc2c(Cl)ncc(Br)c2n1`, 59 to 60 °C; to `Nc1nc(-n2cc(C(=O)O)c(=O)c3cc(F)c(F)c(F)c32)c(F)cc1F`, 280 °C. Then `CN(C)Cc1cc([N+](=O)[O-])cc2c(Nc3cccc(Br)c3)c(C#N)cnc12`, with 223 to 226 °C; and `CC(C)[C@@H]1CC[C@@H](C)C[C@H]1C(=O)Nc1ccc(CC#N)cc1`, with 146 to 150 °C; and `CCOC(=O)C(=O)Nc1coc2ccc(Cl)cc2c1=O`, with 161 to 162 °C. To `CCOC(=O)CCCOc1cccc(Oc2nc(OC)cc(OC)n2)c1C=O` belongs 96 °C; to `CCOC(=O)C(C)Oc1ccc(OCc2ccccc2)c(F)c1` (configuration not stated), 77 °C. The compound `O=C(O)/C=C/C(=O)/C=C/c1ccc2c(c1)OCO2` displayed a melting point of 170 to 173 °C. To `O=C(C=Cc1cccnc1)N1CCc2c([nH]c3ccccc23)C1c1ccc2c(c1)OCO2` (configuration not stated) belongs 240 °C; to `CNC(=O)Nc1scc(C(C)C)c1C#N`, 179 to 181 °C; to `CC(C)C(=O)N1CC(OCc2ccccc2)C(OCc2ccccc2)C(OCc2ccccc2)C1COCc1ccccc1` (configuration not stated), 185 to 189 °C.

The compound `COC(=O)C(N)Cc1ccc(Oc2ccc(O)cc2)cc1` (configuration not stated) displayed a melting point of 123 to 124 °C.

Turning to `COc1ccc(CCC(=O)Nc2c(C)c(C)c3c(c2C)C(c2ccc(C(C)C)cc2)CO3)cc1` (configuration not stated), the melting point was 119 to 120 °C.

For `CN(C)C=Nc1ncc2cc(-c3c(Cl)cccc3Cl)c(N=CN(C)C)nc2n1`, the melting point lay in the range of 269 to 272 °C. To `O=C1NCCc2[nH]c3c(Br)cccc3c21` belongs 268 to 270 °C.

In the case of `COc1cc(C(=O)N2Cc3ccc(C(=O)NCc4ccc(OC(F)(F)F)cc4)n3Cc3ccccc32)ccc1-c1ccccc1C`, the melting point is 145 to 149 °C. Then `CC1CN(c2ccc(S(N)(=O)=O)cc2)CC(C)N1CCC1OCCc2ccccc21` (configuration not stated), with 170 to 175 °C. Then `CC(C)CCC(=O)N[C@H]1CC[C@H](CCN2CCN(c3nccc4c3CCO4)CC2)CC1`, with 182 °C. To `Cc1cc(-n2cnnc2)ccc1[N+](=O)[O-]` belongs 208 to 210 °C. In the case of `O=[N+]([O-])c1ccc(OCC(O)COc2ccc([N+](=O)[O-])cc2)cc1`, the melting point lay within 144 to 145 °C. To `O=C(O)c1sc(-c2ccc(Cl)cc2)nc1C(F)(F)F` belongs 235 to 250 °C; to `CC(C)OC(=O)c1cc(-n2c(=O)[nH]c3c(c2=O)CSC3)c(F)cc1Cl`, 180 to 183 °C.

Compound `CC(C)P1(=O)NCc2ccccc21` (configuration not stated) had a melting point of 149 to 151 °C. Then `CCOC(=O)C(C)(C(C)=O)c1ccc([N+](=O)[O-])c(NC)c1C#N` (configuration not stated), with 87 to 91 °C; and `CC(Cc1ccc(CC2SC(=O)NC2=O)cc1)NCC(O)c1cc(Cl)c(N)c(Cl)c1` (configuration not stated), with 195 to 201 °C; and `CN(C)c1ccc(C(=CC(C=C(c2ccc(N(C)C)cc2)c2ccc(N(C)C)cc2)c2ccc(N(C)C)cc2)c2ccc(N(C)C)cc2)cc1`, with 215 to 220 °C.

As for `O=Cc1nnc2n1-c1ccc(Cl)cc1C(c1ccccc1)=NC2`, the melting point was in the range of 133 to 135 °C. In turn, `CC1(C)OC[C@H](COc2ccc(C(=O)c3ccc([N+](=O)[O-])cc3)cc2)O1` registered a melting point of 92 to 93 °C. Then `CC(=O)OC1(C(C)=O)C(C)CC2C3CC(C)C4=CC(=O)C=CC4(C)C3(F)C(O)CC21C` (configuration not stated), with 291 to 293 °C; and `Cc1c(CO)c2cnnc(NCc3ccccc3)c2n1Cc1ccccc1`, with 238 to 240 °C. To `Cn1c(Oc2ccc(N=C=S)cc2)nc2ccccc21` belongs 59 to 61 °C; to `NC(=O)c1sc2nc(N3CCC(NCC(O)c4ccc5ncccc5c4)CC3)cc(C(F)(F)F)c2c1N` (configuration not stated), 217 to 219 °C; to `O=C(O)C1Cc2c(ncn2Cc2ccccc2O)CN1C(=O)C(c1ccccc1)c1ccccc1` (configuration not stated), 187 to 190 °C. To `COC(CN/C=C\C(=C(C#N)C#N)c1ccc2cc(N(C)C)ccc2c1)OC` belongs 158 to 159 °C; to `Cc1c(C)c2c(c(C)c1N)C(c1ccc(C(C)C)cc1)CO2` (configuration not stated), 171 to 173 °C.
